Reference: patent publication US20140357688A1, “METHOD FOR INHIBITING EZH2 EXPRESSION IN BREAST CANCER CELLS” (Yung Shin Pharm. Ind. Co., Ltd., priority 2013, published 2014)

Tests used:
184A1 = assay: MTT cell viability assay; assay type: cell-based, human; conditions: normal mammary epithelial cells 184A1
Procedure: (§1) (A) Cells were treated with indicated concentration of YC-1 for 6, 24, and 48 h. Cell viability was determined by MTT method. (B) MDA-MB-468 cells were treated with 3 μM YC-1 for 0, 6, and 12 h, and then stained with fluorescence diacetate (FDA) and propidium iodide (PI). Cell morphology was assessed by fluorescence microscopy with magnification ×20 (upper 3 rows) or ×40 (lowest row). (C) MDA-MB-468 cells were treated with 3 μM YC-1 for 24 h, cells were lysed and subjected to western blot analysis described in Materials and Methods. β-actin is a loading control. Blots were representative of results from three independent experiments. (D) Cells were treated with vehicle (DMSO, as control) or 3 μM YC-1 for 6 h. The cell cycles were analyzed by flow cytometry. (E) Cells were treated with indicated concentration of YC-1 and then performed with clonogenic assay.
(§2) Human breast cancer cells, MDA-MB-468, MDA-MB-157, MDA-MB-231, MDA-MB-453, and Hs578T, and immortalized mammary epithelial cell lines, 184A1 and MCF-10A, were obtained from American Type Culture Collection (Manassas, Va., USA). MDA-MB-468, MDA-MB-157, MDA-MB-231, and MDA-MB-453 were cultured in DMEM/F12 medium supplemented with 10% FBS, 100 U/ml penicillin, and 100 μg/ml streptomycin. Hs578T was cultured in RPMI 1640 medium containing 10% FBS, 2 mM L-glutamine, 100 U/ml penicillin, and 100 μg/ml streptomycin. 184A1 and MCF-10A were cultured in DMEM/F12 medium supplemented with 5% horse serum, 0.5 μg/ml hydrocortisone, 10 μg/ml insulin, 20 ng/ml epidermal growth factor, 0.1 μg/ml cholera enterotoxin, 2 mM L-glutamine, 100 U/ml penicillin, and 100 μg/ml streptomycin. All cells were maintained in a humidified incubator containing 5% CO2. For hypoxia treatment, cells were incubated in a chamber flushed with 1% 02, 5% CO2, and 94% N2 at 37° C.
(§3) Cell viability was measured by 3-(4,5-Dimethyl-2-thiazolyl)2,5-diphenyl-2H-tetrazolium bromide (MTT) assay.

MCF-10A = assay: MTT cell viability assay; assay type: cell-based, human; conditions: normal mammary epithelial cells MCF-10A
Procedure: as §1, §2, §3

MDA-MB-468 = assay: MTT cell viability assay; assay type: cell-based, human; conditions: Homo sapiens, MDA-MB-468
Procedure: as §1, §2, §3

H3K27me3 = assay: Western blot of H3K27me3 in MDA-MB-468 cells; assay type: cell-based, human
Procedure: (§4) (A)(B) Cells were treated with indicated concentration of YC-1 for 24 h (A) or 3 μM of YC-1 for indicated time (B). Cells were harvested and performed with western blotting analysis. […] The levels of protein expression were quantitated and shown under blots. (C) Cells were transfected with EZH2 shRNA for 0, 1, 2, 3, and 4 days and collected for determination of cell viability (left) and protein expression (right). (D)(E) After 4 days of EZH2 knockdown, cells were incubated with 3 μM YC-1 for 4 h and detected cell viability (D) and protein contents (E). (F) Tumor specimens were isolated and protein was extracted for western blot analysis.
Cells were lysed in PBS containing proteinase inhibitor and phosphatase inhibitors and sonication. Protein concentration was measured using the Bio-Rad protein assay kit (Bio-Rad Laboratories, Hercules, Calif., USA). Lysate protein was separated by electrophoresis of SDS-PAGE and transferred to Immobilon P membrane (EMD Millipore). The membranes were incubated with appropriate primary antibodies and horseradish peroxidase-conjugated secondary antibodies (EMD Millipore). The signaling was visualized using Chemiluminescence substrate kit (EMD Millipore) and collected by the Luminesence image analyzer, LAS4000 (Fuji Photo Film Co., Tokyo, Japan). The band intensities were analyzed and quantified by the Multi Gauge software (Fuji Photo Film).

EZH2 = assay: Western blot of EZH2 in tumor from MDA-MB-468 xenograft mice; assay type: in vivo, Nu/Nu mice
Procedure: as §4
(§5) Cells were lysed in PBS containing proteinase inhibitor and phosphatase inhibitors and sonication. Protein concentration was measured using the Bio-Rad protein assay kit (Bio-Rad Laboratories, Hercules, Calif., USA). Lysate protein was separated by electrophoresis of SDS-PAGE and transferred to Immobilon P membrane (EMD Millipore). […] The band intensities were analyzed and quantified by the Multi Gauge software (Fuji Photo Film).
Nu/Nu female mice (four weeks old) were from National Laboratory Animal Center, Taipei, Taiwan. […] Tumor size and body weights of mice were measured once per 3 days and tumor volume (mm^3) was calculated as the equation: length×(width)×0.5. […]

EZH2 Tyr487 = assay: Western blot of EZH2 phosphorylation; assay type: cell-based, human; conditions: 3 μM YC-1
Procedure: (A) MDA-MB-468 cells were incubated with 3 μM YC-1 for indicated time. Cells were harvested for the detection of phospho-Akt (Ser473), Akt, and PCNA. (B) Cells were pretreated with LY294002 (LY, 10 μM) for 1 h followed by 3 μM YC-1 induction for 6 h. (C) MDA-MB-468 cells were incubated with 3 μM YC-1 for indicated time. Cells were harvested for the detection of phospho-CDK1 (Thr161), CDK1, phospho-EZH2 ([…]), EZH2, and β-actin expression with western blot analysis. Levels of EZH2 phosphorylation were calculated by phospho-EZH2 normalized by total EZH2. (D) Cells were treated with YC-1 for 6 h in the absence or presence of roscovitine (Rosc, 20 μM). Cells were harvested and analyzed by western blotting for protein expression. (E) CDK1 knockdown of MDA-MB-468 cells were induced with 3 μM YC-1 for 4 h and followed by western blot analysis.
as §5

IC50 (MDA-MB-468; 24 h-incubation): 620 ± 20 nM
IC50 (MDA-MB-468; 48 h-incubation): 290 ± 20 nM
SMILES: OCc1ccc(-c2nn(Cc3ccccc3)c3ccccc23)o1 [YC-1, 3-(5′-hydroxymethyl-2′-furyl)-1-benzyl indazole]
effect on cell viability (184A1): no effect
effect on cell viability (MCF-10A): no effect
H3K27me3 level (H3K27me3): kept unchanged
EZH2 level in tumor (EZH2): decrease EZH2 level in tumor
phosphorylation of EZH2 Tyr487 (EZH2 Tyr487): no effect
